In PubChem BioAssay (NCI):
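Test compounds were applied to cells in 96-well plates for 48 hours at 5 doses. At the GI50, growth is halved. The concentration for full growth arrest is given as TGI.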

Columns and labels:
Experiment in all cases: DTP human tumour cell line panel, 48 h
MCF7 breast = test system: MCF7 breast
786-0 renal = test system: 786-0 renal
NCI-H460 lung = test system: NCI-H460 lung
SN12C renal = test system: SN12C renal
SK-MEL-5 melanoma = test system: SK-MEL-5 melanoma
COLO 205 colon = test system: COLO 205 colon
A549 NSCLC = test system: A549 NSCLC
SR leukemia = test system: SR leukemia
TK-10 renal = test system: TK-10 renal
SNB-19 CNS = test system: SNB-19 CNS
SF-295 CNS = test system: SF-295 CNS
UACC-257 melanoma = test system: UACC-257 melanoma
OVCAR-3 ovarian = test system: OVCAR-3 ovarian
MOLT-4 leukemia = test system: MOLT-4 leukemia
HOP-62 NSCLC = test system: HOP-62 NSCLC
SF-268 CNS = test system: SF-268 CNS
MALME-3M melanoma = test system: MALME-3M melanoma
OVCAR-4 ovarian = test system: OVCAR-4 ovarian
NCI/ADR-RES ovarian = test system: NCI/ADR-RES ovarian
RPMI-8226 leukemia = test system: RPMI-8226 leukemia
OVCAR-8 ovarian = test system: OVCAR-8 ovarian
HCT-116 colon = test system: HCT-116 colon
DU-145 prostate = test system: DU-145 prostate
MDA-MB-435 = test system: MDA-MB-435
KM12 colon = test system: KM12 colon
HCC-2998 colon = test system: HCC-2998 colon
T-47D breast = test system: T-47D breast
RXF 393 renal = test system: RXF 393 renal
SK-OV-3 ovarian = test system: SK-OV-3 ovarian
SK-MEL-28 melanoma = test system: SK-MEL-28 melanoma
SNB-75 CNS = test system: SNB-75 CNS
EKVX NSCLC = test system: EKVX NSCLC
MDA-MB-231 breast = test system: MDA-MB-231 breast
NCI-H23 lung = test system: NCI-H23 lung
BT-549 breast = test system: BT-549 breast
HL-60(TB) leukemia = test system: HL-60(TB) leukemia
ACHN renal = test system: ACHN renal
HT29 colon = test system: HT29 colon
OVCAR-5 ovarian = test system: OVCAR-5 ovarian
MDA-N = test system: MDA-N
CCRF-CEM leukemia = test system: CCRF-CEM leukemia
HOP-92 NSCLC = test system: HOP-92 NSCLC
HS 578T breast = test system: HS 578T breast
NCI-H522 lung = test system: NCI-H522 lung
PC-3 prostate = test system: PC-3 prostate
SW-620 colon = test system: SW-620 colon
U251 CNS = test system: U251 CNS
M14 melanoma = test system: M14 melanoma
HCT-15 colon = test system: HCT-15 colon
UACC-62 melanoma = test system: UACC-62 melanoma
SF-539 CNS = test system: SF-539 CNS
IGROV1 ovarian = test system: IGROV1 ovarian
NCI-H226 lung = test system: NCI-H226 lung
K-562 leukemia = test system: K-562 leukemia
SK-MEL-2 melanoma = test system: SK-MEL-2 melanoma
CAKI-1 renal = test system: CAKI-1 renal
UO-31 renal = test system: UO-31 renal
LOX IMVI melanoma = test system: LOX IMVI melanoma

## O=C(CN=C(CN(c1ccccc1)c1ccccc1)Oc1c(Cl)cc(Cl)cc1Cl)N1c2ccccc2Sc2ccccc21
MCF7 breast
  TGI: > 100 µM
786-0 renal
  TGI: > 100 µM
NCI-H460 lung
  TGI: > 100 µM
SN12C renal
  TGI: > 100 µM
SK-MEL-5 melanoma
  TGI: > 100 µM
COLO 205 colon
  TGI: > 100 µM
A549 NSCLC
  TGI: > 100 µM
SR leukemia
  TGI: > 100 µM
TK-10 renal
  TGI: > 100 µM
SNB-19 CNS
  TGI: > 100 µM
SF-295 CNS
  TGI: > 100 µM
UACC-257 melanoma
  TGI: > 100 µM
OVCAR-3 ovarian
  TGI: > 100 µM
MOLT-4 leukemia
  TGI: > 100 µM
HOP-62 NSCLC
  TGI: > 100 µM
SF-268 CNS
  TGI: > 100 µM
MALME-3M melanoma
  TGI: > 100 µM
OVCAR-4 ovarian
  TGI: > 100 µM
NCI/ADR-RES ovarian
  TGI: > 100 µM
RPMI-8226 leukemia
  TGI: > 100 µM
OVCAR-8 ovarian
  TGI: > 100 µM
HCT-116 colon
  TGI: > 100 µM
DU-145 prostate
  TGI: > 100 µM
MDA-MB-435
  TGI: > 100 µM
KM12 colon
  TGI: > 100 µM
HCC-2998 colon
  TGI: > 100 µM
T-47D breast
  TGI: > 100 µM
RXF 393 renal
  TGI: 27.4 µM
SK-OV-3 ovarian
  TGI: > 100 µM
SK-MEL-28 melanoma
  TGI: > 100 µM
SNB-75 CNS
  TGI: > 100 µM
EKVX NSCLC
  TGI: > 100 µM
MDA-MB-231 breast
  TGI: > 100 µM
NCI-H23 lung
  TGI: > 100 µM
BT-549 breast
  TGI: > 100 µM
HL-60(TB) leukemia
  TGI: > 100 µM
ACHN renal
  TGI: > 100 µM
HT29 colon
  TGI: > 100 µM
OVCAR-5 ovarian
  TGI: > 100 µM
MDA-N
  TGI: > 100 µM
CCRF-CEM leukemia
  TGI: > 100 µM
HOP-92 NSCLC
  TGI: 57.2 µM
HS 578T breast
  TGI: > 100 µM
NCI-H522 lung
  TGI: > 100 µM
PC-3 prostate
  TGI: > 100 µM
SW-620 colon
  TGI: > 100 µM
U251 CNS
  TGI: > 100 µM
M14 melanoma
  TGI: > 100 µM
HCT-15 colon
  TGI: > 100 µM
UACC-62 melanoma
  TGI: > 100 µM
SF-539 CNS
  TGI: > 100 µM
IGROV1 ovarian
  TGI: > 100 µM
NCI-H226 lung
  TGI: > 100 µM

## COc1cccc(/C=C/c2ccc(S(N)(=O)=O)cc2)c1
MCF7 breast
  TGI: > 100 µM
786-0 renal
  TGI: 98.2 µM
NCI-H460 lung
  TGI: > 100 µM
SN12C renal
  TGI: 89.6 µM
SK-MEL-5 melanoma
  TGI: 66.8 µM
COLO 205 colon
  TGI: 42.8 µM
K-562 leukemia
  GI50: 20.6 µM
  TGI: > 100 µM
A549 NSCLC
  GI50: 11 µM
  TGI: > 100 µM
SR leukemia
  GI50: 5.21 µM
  TGI: 40.8 µM
TK-10 renal
  TGI: 90 µM
SNB-19 CNS
  TGI: > 100 µM
SF-295 CNS
  TGI: > 100 µM
UACC-257 melanoma
  TGI: 60.9 µM
OVCAR-3 ovarian
  TGI: 27.5 µM
MOLT-4 leukemia
  GI50: 26.8 µM
  TGI: > 100 µM
SK-MEL-2 melanoma
  TGI: 36.8 µM
HOP-62 NSCLC
  TGI: > 100 µM
SF-268 CNS
  GI50: 17.1 µM
  TGI: > 100 µM
CAKI-1 renal
  GI50: 14.7 µM
  TGI: > 100 µM
MALME-3M melanoma
  TGI: > 100 µM
UO-31 renal
  TGI: > 100 µM
OVCAR-4 ovarian
  GI50: 25 µM
  TGI: > 100 µM
NCI/ADR-RES ovarian
  TGI: > 100 µM
RPMI-8226 leukemia
  GI50: 3.81 µM
  TGI: 19.8 µM
OVCAR-8 ovarian
  GI50: 31.6 µM
  TGI: > 100 µM
HCT-116 colon
  TGI: 21.7 µM
DU-145 prostate
  TGI: > 100 µM
MDA-MB-435
  GI50: 17.4 µM
  TGI: > 100 µM
KM12 colon
  GI50: 12.2 µM
  TGI: > 100 µM
HCC-2998 colon
  TGI: 87.2 µM
T-47D breast
  TGI: > 100 µM
RXF 393 renal
  TGI: > 100 µM
SK-OV-3 ovarian
  TGI: > 100 µM
SK-MEL-28 melanoma
  TGI: > 100 µM
SNB-75 CNS
  TGI: 91.2 µM
EKVX NSCLC
  TGI: > 100 µM
MDA-MB-231 breast
  TGI: 79.6 µM
NCI-H23 lung
  GI50: 21 µM
  TGI: 57.5 µM
BT-549 breast
  GI50: 6.38 µM
  TGI: > 100 µM
HL-60(TB) leukemia
  GI50: 10.4 µM
  TGI: 77.7 µM
ACHN renal
  GI50: 7.12 µM
  TGI: > 100 µM
HT29 colon
  GI50: 0.554 µM
  TGI: > 100 µM
OVCAR-5 ovarian
  TGI: > 100 µM
MDA-N
  TGI: > 100 µM
CCRF-CEM leukemia
  GI50: 13.6 µM
  TGI: > 100 µM
HOP-92 NSCLC
  GI50: 3.29 µM
  TGI: 35.8 µM
HS 578T breast
  GI50: 25.5 µM
  TGI: 80.1 µM
PC-3 prostate
  TGI: > 100 µM
LOX IMVI melanoma
  GI50: 30.7 µM
  TGI: > 100 µM
U251 CNS
  GI50: 5.54 µM
  TGI: > 100 µM
M14 melanoma
  TGI: > 100 µM
HCT-15 colon
  GI50: 3.6 µM
  TGI: 65.4 µM
UACC-62 melanoma
  GI50: 14 µM
  TGI: 58.9 µM
SF-539 CNS
  GI50: 16.8 µM
  TGI: 77.6 µM
IGROV1 ovarian
  GI50: 2.5 µM
  TGI: 28.9 µM
NCI-H226 lung
  GI50: 2.91 µM
  TGI: 17.5 µM

## CCOC(=O)c1nc2cc(C(F)(F)F)ccc2nc1Oc1ccc(OC)cc1
MCF7 breast
  TGI: > 100 µM
786-0 renal
  TGI: > 100 µM
NCI-H460 lung
  TGI: > 100 µM
SN12C renal
  TGI: > 100 µM
SK-MEL-5 melanoma
  TGI: > 100 µM
COLO 205 colon
  TGI: > 100 µM
K-562 leukemia
  TGI: > 100 µM
A549 NSCLC
  TGI: > 100 µM
SR leukemia
  TGI: > 100 µM
TK-10 renal
  TGI: > 100 µM
SNB-19 CNS
  TGI: > 100 µM
SF-295 CNS
  TGI: > 100 µM
UACC-257 melanoma
  TGI: > 100 µM
OVCAR-3 ovarian
  TGI: > 100 µM
MOLT-4 leukemia
  TGI: > 100 µM
SK-MEL-2 melanoma
  TGI: > 100 µM
SF-268 CNS
  TGI: > 100 µM
CAKI-1 renal
  TGI: > 100 µM
MALME-3M melanoma
  TGI: > 100 µM
UO-31 renal
  TGI: > 100 µM
OVCAR-4 ovarian
  TGI: > 100 µM
NCI/ADR-RES ovarian
  TGI: > 100 µM
RPMI-8226 leukemia
  TGI: > 100 µM
OVCAR-8 ovarian
  TGI: > 100 µM
HCT-116 colon
  TGI: > 100 µM
DU-145 prostate
  TGI: > 100 µM
MDA-MB-435
  TGI: > 100 µM
KM12 colon
  TGI: > 100 µM
HCC-2998 colon
  TGI: > 100 µM
T-47D breast
  TGI: > 100 µM
RXF 393 renal
  TGI: > 100 µM
SK-MEL-28 melanoma
  TGI: > 100 µM
SNB-75 CNS
  TGI: > 100 µM
EKVX NSCLC
  TGI: > 100 µM
MDA-MB-231 breast
  TGI: > 100 µM
BT-549 breast
  TGI: > 100 µM
HL-60(TB) leukemia
  TGI: > 100 µM
ACHN renal
  TGI: > 100 µM
OVCAR-5 ovarian
  TGI: > 100 µM
MDA-N
  TGI: > 100 µM
CCRF-CEM leukemia
  TGI: > 100 µM
HOP-92 NSCLC
  TGI: > 100 µM
HS 578T breast
  TGI: > 100 µM
NCI-H522 lung
  TGI: > 100 µM
PC-3 prostate
  TGI: > 100 µM
SW-620 colon
  TGI: > 100 µM
LOX IMVI melanoma
  TGI: > 100 µM
U251 CNS
  TGI: > 100 µM
M14 melanoma
  TGI: > 100 µM
HCT-15 colon
  TGI: > 100 µM
UACC-62 melanoma
  TGI: > 100 µM
SF-539 CNS
  TGI: > 100 µM
IGROV1 ovarian
  TGI: > 100 µM
NCI-H226 lung
  TGI: > 100 µM
